Test results as given in EP2063887B1, “NEW SMALL MOLECULE INHIBITORS OF MDM2 AND THE USES THEREOF” (priority 2006, dated 2008).
Values joined by “and” are separate entries in the source; they are usually repeats but may differ in a detail not shown here. Equal entries are not always repeated. Where two headings read alike, the source gives them in different places.

Experiments:
HCT116 p53KO = test: Cell growth inhibition (WST-8), HCT116 p53KO; type: cell-based;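 note: cells in 96-well plates exposed to compound for 4 days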
Protocol: (§1) Cells were seeded in 96-well flat bottom cell culture plates at a density of 3-4x 10^3 cells/well and incubated in the presence of compounds for 4 days.

LNCaP (p53 wild-type) = test: Cell growth inhibition (WST-8, 4 days), LNCaP; type: cell-based, human;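 note: LNCaP human prostate cancer cells exposed to compound for 4 days, with inhibition of cell growth as the measured effect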
Protocol: (§2) To test these predictions, a cell growth assay was developed using human prostate cancer LNCaP (p53 wild-type) and PC-3 (p53 null) cell lines. The toxic effects of compounds of the invention were tested.
as §1

HCT116 p53WT = test: Cell growth inhibition (WST-8), HCT116 p53WT; type: cell-based; settings: individual determinations and mean ± SD lines;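 note: compound exposure of the cells lasted 4 days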
Protocol: as §1

PC-3 (p53 null) = test: Cell growth inhibition (WST-8, 4 days), PC3; type: cell-based, human;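 note: PC-3 is a human prostate cancer line, cultured with test compound throughout the 4-day growth assay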
Protocol: as §2, §1

MDM2 protein = MDM2 protein (Homo sapiens, UniProt Q00987); test: MDM2 binding assay, competition with tracer F-6 (IC50 and calculated Ki); settings: MDM2 [10 nM]; F-6 [1 nM]; individual determinations, values not in parentheses
[1] = HCT116 p53KO, individual determinations and mean ± SD lines, read-out: HCT116 p53KO IC50
[2] = individual determinations and mean ± SD lines, read-out: LNCaP IC50
[3] = HCT116 p53WT, read-out: HCT116 p53WT IC50
[4] = PC3, p53 null, individual determinations and mean ± SD lines, read-out: PC3 IC50
[5] = Homo sapiens, HCT-116, HCT116 p53KO, individual determinations and mean ± SD lines, read-out: HCT116 p53KO IC50
[6] = Homo sapiens, 96 h, individual determinations and mean ± SD lines, read-out: LNCaP IC50
[7] = Homo sapiens, HCT-116, HCT116 p53WT, read-out: HCT116 p53WT IC50
[8] = Homo sapiens, 96 h, PC3, p53 null, individual determinations and mean ± SD lines, read-out: PC3 IC50
[9] = read-out: HCT116 p53KO IC50, HCT116 p53KO, individual determinations and mean ± SD lines
[10] = read-out: LNCaP IC50, individual determinations and mean ± SD lines
[11] = Homo sapiens, HCT-116, read-out: HCT116 p53WT IC50 (µM), HCT116 p53WT
[12] = read-out: HCT116 p53WT IC50, HCT116 p53WT
[13] = read-out: PC3 IC50, PC3, p53 null, individual determinations and mean ± SD lines

MDM2 protein, sequence (Q00987 whole entry, species assumed): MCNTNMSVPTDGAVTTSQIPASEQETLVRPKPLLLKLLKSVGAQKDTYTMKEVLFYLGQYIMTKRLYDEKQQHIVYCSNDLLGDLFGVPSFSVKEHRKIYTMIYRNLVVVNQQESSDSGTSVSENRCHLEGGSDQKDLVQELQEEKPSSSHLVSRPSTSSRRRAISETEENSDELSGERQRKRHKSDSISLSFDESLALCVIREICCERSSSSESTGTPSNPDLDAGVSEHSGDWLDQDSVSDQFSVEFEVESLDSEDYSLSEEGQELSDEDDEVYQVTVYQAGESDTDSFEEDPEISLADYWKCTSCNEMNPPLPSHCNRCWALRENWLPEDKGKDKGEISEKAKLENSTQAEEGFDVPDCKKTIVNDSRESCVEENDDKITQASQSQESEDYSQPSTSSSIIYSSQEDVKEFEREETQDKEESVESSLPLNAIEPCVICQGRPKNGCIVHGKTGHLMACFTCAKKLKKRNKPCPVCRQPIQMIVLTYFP

## CC(C)(C)C[C@H]1N[C@@H](C(=O)NCCc2ncc[nH]2)[C@H](c2cccc(Cl)c2)[C@@]12C(=O)Nc1cc(Cl)c(F)cc12 [MI-319-21]
HCT116 p53KO; [1]
  IC50: 13.2 µM
LNCaP (p53 wild-type); [2]
  IC50: 1.84 µM
HCT116 p53WT; [3]
  IC50: 3.88 µM
PC-3 (p53 null); [4]
  IC50: 14.1 µM

## CC(C)(C)C[C@H]1N[C@@H](C(=O)NCCn2ccnc2)[C@H](c2ccc(F)c(Cl)c2)[C@@]12C(=O)Nc1cc(Cl)c(F)cc12 [MI-319-17, 6-CHLORO-4'-(3-CHLORO-4-FLUOROPHENYL)-2'-(2,2-DIMETHYL-PROPYL)-5-FLUORO-2-OXO-1,2-DIHYDRO-SPIRO[INDOLE-3,3'-PYRROLIDINE]-5'-CARBOXYLIC ACID (2-IMIDAZOL-1-YL-ETHYL)-AMIDE]
HCT116 p53KO; [1]
  IC50: 22.3 µM and 25.1 µM
HCT116 p53KO; [5]
  IC50: 25.1 µM
LNCaP (p53 wild-type); [6]
  IC50: 1.1 µM
LNCaP (p53 wild-type); [2]
  IC50: 1.55 µM and 1.51 µM
HCT116 p53WT; [3]
  IC50: 3.79 µM and 3.15 µM
HCT116 p53WT; [7]
  IC50: 2.1 µM
PC-3 (p53 null); [8]
  IC50: 14 µM
PC-3 (p53 null); [4]
  IC50: 22 µM and 23.6 µM

## CC(C)(C)C[C@H]1N[C@@H](C(=O)NCCC2CCC(O)C2)[C@H](c2ccc(F)c(Cl)c2)[C@@]12C(=O)Nc1cc(Cl)c(F)cc12 (single isomer, unassigned) [MDM2-319-6, 6-CHLORO-4'-(3-CHLORO-4-FLUOROPHENYL)-2'-(2,2-DIMETHYL-PROPYL)-5-FLUORO-2-OXO-1,2-DIHYDRO-SPIRO[INDOLE-3,3'-PYRROLIDINE]-5'-CARBOXYLIC ACID [2-(3-HYDROXY-CYCLOPENTYL)-ETHYL)-AMIDE]
HCT116 p53KO; Homo sapiens, HCT-116, read-out: HCT116 p53KO IC50 (µM), HCT116 p53KO, individual determinations and mean ± SD lines
  IC50: 14.3 µM
HCT116 p53KO; [9]
  IC50: 16.1 µM and 14.6 µM and 15 µM
LNCaP (p53 wild-type); [10]
  IC50: 2.58 µM and 1.22 µM and 1.93 µM and 1.91 µM
HCT116 p53WT; [11]
  IC50: 5.45 µM
HCT116 p53WT; [12]
  IC50: 7.41 µM and 5.96 µM and 6.26 µM
PC-3 (p53 null); Homo sapiens, 96 h, read-out: PC3 IC50 (µM), PC3, p53 null, individual determinations and mean ± SD lines
  IC50: 21.4 µM
PC-3 (p53 null); [13]
  IC50: 20.8 µM and 14.2 µM and 18.7 µM

## COC(C)(C)C[C@H]1N[C@@H](C(=O)NCC[C@H](O)CO)[C@H](c2ccc(F)c(Cl)c2)[C@@]12C(=O)Nc1cc(Cl)c(F)cc12 [MI-319-7]
LNCaP (p53 wild-type); [2]
  IC50: 1.92 µM
HCT116 p53WT; [3]
  IC50: 7.95 µM
PC-3 (p53 null); [4]
  IC50: 34.3 µM

## CC(C)(C)C[C@H]1N[C@@H](C(=O)NCC[C@H](O)CO)[C@H](c2ccc(F)c(Cl)c2)[C@@]12C(=O)Nc1cc(Cl)c(F)cc12 [MDM2-319, (2'R,3S,3"S,4'R,5'R) 6-CHLORO-4'-(3-CHLORO-4-FLUORO-PHENYL)-2'-(2,2-DIMETHYL-PROPYL)-5-FLUORO-2-OXO-1,2-DIHYDRO-SPIRO[INDOLE-3,3'-PYRROLIDINE]-5'-CARBOXYLIC ACID (3,4-DIHYDROXY-BUTYL)-AMIDE]
HCT116 p53KO; read-out: HCT116 p53KO IC50
  IC50: 11.8 µM and 12.2 µM and 14.2 µM
LNCaP (p53 wild-type); [2]
  IC50: 0.274 µM and 0.184 µM and 0.229 µM
HCT116 p53WT; [3]
  IC50: 0.717 µM and 0.615 µM and 0.247 µM and 0.52 µM

## CC(=O)N1[C@@H](C(=O)NCC[C@H](O)CO)[C@H](c2ccc(F)c(Cl)c2)[C@@]2(C(=O)Nc3cc(Cl)c(F)cc32)[C@H]1CC(C)(C)C [MI-319-13, 1'-ACETYL-6-CHLORO-4'-(3-CHLORO-4-FLUOROPHENYL)-2'-(2,2-DIMETHYLPROPYL)-5-FLUORO-2-OXO-1,2-DIHYDRO-SPIRO[INDOLE-3,3'-PYRROLIDINE]-5'-CARBOXYLIC ACID (3,4-DIHYDROXY-BUTYL)-AMIDE]
LNCaP (p53 wild-type); [10]
  IC50: 3.66 µM and 2.32 µM and 4.85 µM and 3.6 µM
HCT116 p53WT; [12]
  IC50: 3.23 µM and 6.37 µM and 11 µM and 6.85 µM

## CC(C)(C)C[C@H]1N[C@@H](C(=O)NCCNC(=N)N)[C@H](c2ccc(F)c(Cl)c2)[C@@]12C(=O)Nc1cc(Cl)c(F)cc12 [MI-319-20, 6-CHLORO-4'-(3-CHLORO-4-FLUOROPHENYL)-2'-(2,2-DIMETHYL-PROPYL)-5-FLUORO-2-OXO-1,2-DIHYDRO-SPIRO[INDOLE-3,3'-PYRROLIDINE]-5'-CARBOXYLIC ACID (2-GUANIDINO-ETHYL)-AMIDE]
HCT116 p53KO; [9]
  IC50: > 100 µM
HCT116 p53WT; [12]
  IC50: > 30 µM and 93.5 µM
PC-3 (p53 null); [13]
  IC50: > 30 µM and 66.1 µM

## O=C(NCC[C@H](O)CO)[C@@H]1N[C@H](C2CCCCC2)[C@]2(C(=O)Nc3cc(Cl)c(F)cc32)[C@H]1c1ccc(F)c(Cl)c1 [MDM2-319-4, 6-CHLORO-4'-(3-CHLORO-4-FLUOROPHENYL)-2'-CYCLOHEXYL-5-FLUORO-2-OXO-1,2-DIHYDRO-SPIRO[INDOLE-3,3'-PYRROLIDINE]-5'-CARBOXYLIC ACID (3,4-DIHYDROXY-BUTYL)-AMIDE]
HCT116 p53KO; [1]
  IC50: 13.1 µM and 26.5 µM and 13.4 µM and 17.6 µM
LNCaP (p53 wild-type); [6]
  IC50: 1.42 µM
LNCaP (p53 wild-type); [2]
  IC50: 1.29 µM and 0.89 µM and 1.21 µM
HCT116 p53WT; [3]
  IC50: 5.03 µM and 5.8 µM and 2.41 µM and 4.41 µM
PC-3 (p53 null); [8]
  IC50: 18.5 µM
PC-3 (p53 null); [4]
  IC50: 23.4 µM and 25.6 µM and 22.5 µM

## O=C(NCC[C@H](O)CO)[C@@H]1N[C@H](C2CCCC2)[C@]2(C(=O)Nc3cc(Cl)c(F)cc32)[C@H]1c1ccc(F)c(Cl)c1 [MI-319-8, 6-CHLORO-4'-(3-CHLORO-4-FLUOROPHENYL)-2'-CYCLOPENTYL-5-FLUORO-2-OXO-1,2-DIHYDRO-SPIRO[INDOLE-3,3'-PYRROLIDINE]-5'-CARBOXYLIC ACID (3,4-DIHYDROXY-BUTYL)-AMIDE]
HCT116 p53KO; [1]
  IC50: 25.5 µM and 22.7 µM and 26.3 µM
HCT116 p53KO; [5]
  IC50: 30.9 µM
LNCaP (p53 wild-type); [2]
  IC50: 0.963 µM and 0.893 µM and 0.662 µM and 1.46 µM
HCT116 p53WT; [3]
  IC50: 4.73 µM and 2.74 µM and 3.86 µM
HCT116 p53WT; [7]
  IC50: 4.11 µM
PC-3 (p53 null); [8]
  IC50: 30.7 µM
PC-3 (p53 null); [4]
  IC50: 20.7 µM and 18.4 µM and 23.3 µM

## CC(C)(C)C[C@H]1N[C@@H](C(=O)NC[C@H](O)[C@H](O)CO)[C@H](c2ccc(F)c(Cl)c2)[C@@]12C(=O)Nc1cc(Cl)c(F)cc12 [MI-319-19, 6-CHLORO-4'-(3-CHLORO-4-FLUOROPHENYL)-2'-(2,2-DIMETHYL-PROPYL)-5-FLUORO-2-OXO-1,2-DIHYDRO-SPIRO[INDOLE-3,3'-PYRROLIDINE]-5'-CARBOXYLIC ACID (2,3,4-TRIHYDROXY-BUTYL)-AMIDE]
HCT116 p53KO; [1]
  IC50: > 30 µM and 77.6 µM
LNCaP (p53 wild-type); [6]
  IC50: 1.24 µM
LNCaP (p53 wild-type); [2]
  IC50: 2.4 µM and 1.2 µM
HCT116 p53WT; [3]
  IC50: 2.68 µM and 5.98 µM and 4.6 µM
PC-3 (p53 null); [8]
  IC50: 30.7 µM
PC-3 (p53 null); [4]
  IC50: > 30 µM and 41.6 µM

## CC(C)(C)C[C@H]1N[C@@H](C(=O)NCCC2CCC(O)C2)[C@H](c2ccc(F)c(Cl)c2)[C@@]12C(=O)Nc1cc(Cl)c(F)cc12 (stereo partly shown) [MDM2-319-5]
HCT116 p53KO; [1]
  IC50: 5.39 µM and 8.4 µM and 8.1 µM
LNCaP (p53 wild-type); [2]
  IC50: 0.465 µM and 0.634 µM and 0.56 µM
HCT116 p53WT; [3]
  IC50: 1.29 µM and 1.5 µM and 1.23 µM
PC-3 (p53 null); [4]
  IC50: 5.55 µM and 8.71 µM and 7.91 µM

## CN1CCN(C(=O)[C@@H]2N[C@H](CC(C)(C)C)[C@]3(C(=O)Nc4cc(Cl)c(F)cc43)[C@H]2c2ccc(F)c(Cl)c2)CC1 [MI-319-9]
HCT116 p53KO; [9]
  IC50: 9.71 µM and 8.19 µM and 4.52 µM and 7.47 µM
LNCaP (p53 wild-type); [10]
  IC50: 5 µM and 2.46 µM
HCT116 p53WT; [11]
  IC50: 7.48 µM
HCT116 p53WT; [12]
  IC50: 9.2 µM and 4.63 µM and 7.1 µM

## O=C(NCC[C@H](O)CO)[C@@H]1N[C@H](CC2CCCC2)[C@]2(C(=O)Nc3cc(Cl)c(F)cc32)[C@H]1c1ccc(F)c(Cl)c1 [MDM2-319-1, 6-CHLORO-4'-(3-CHLORO-4-FLUOROPHENYL)-2'-CYCLOPENTYLMETHYL-5-FLUORO-2-OXO-1,2-DIHYDRO-SPIRO[INDOLE-3,3'-PYRROLIDINE]-5'-CARBOXYLIC ACID (3,4-DIHYDROXY-BUTYL)-AMIDE]
HCT116 p53KO; [1]
  IC50: 10.4 µM
HCT116 p53KO; [5]
  IC50: 12.7 µM
LNCaP (p53 wild-type); [6]
  IC50: 0.261 µM
LNCaP (p53 wild-type); [2]
  IC50: 0.36 µM
HCT116 p53WT; [3]
  IC50: 1.36 µM
HCT116 p53WT; [7]
  IC50: 0.908 µM

## 6-CHLORO-4'-(3-CHLORO-4-FLUOROPHENYL)-2'-(2,2-DIMETHYL-PROPYL)-5-FLUORO-2-OXO-1'-OXY-1,2,4',5'-TETRAHYDRO-SPIRO[INDOLE-3,3'-PYRROLE]-5'-CARBOXYLIC ACID (3,4-DIHYDROXY-BUTYL)-AMIDE [MI-319-14]
HCT116 p53KO; [1]
  IC50: > 30 µM
HCT116 p53WT; [3]
  IC50: 8.01 µM and 9.27 µM and 5.74 µM and 7.67 µM
PC-3 (p53 null); [4]
  IC50: 40.1 µM and 40.2 µM and > 30 µM
MDM2 protein
  IC50: 2.04 µM and 1.66 µM
